These results are taken from US9463192B2, “Trk-inhibiting compound” (ONO PHARMACEUTICAL CO., LTD., priority 2013, dated 2016).

The target of one experiment is human TrkA (Homo sapiens (Human), UniProt P04629). As to the kind of experiment: Measurement of TrkA kinase-inhibiting activity using human TrkA-expressing cells. The note with it: CHO-K1 cells expressing human TrkA and NFAT-bla; NGF 50 ng/ml; TR-FRET reporter. It is filed as cell-based. The procedure:
TrkA kinase-inhibiting activity in cell systems was measured using CHO-K1 cells exressing human TrkA and NFAT-bla (CellSenser™ TrkA-NFAT-bla CHO-K1 cells, Invitrogen).
On the day before the assay, CellSenser™ TrkA-NFAT-bla CHO-K1 cells were suspended in an assay medium (Opti-MEM1 Reduced Serum Medium (Invitrogen) containing 0.5% dialysed fetal bovine serum (Invitrogen), 0.1 mM nonessential amino acids (Invitrogen), 1 mM sodium pyruvate (Invitrogen) and antibiotics (100 U/mL penicillin and 100 µg/mL streptomycin (Invitrogen))) and plated at a density of 2.4×10^4 cells/40 μL/well in a 96-well clear bottom plate (Corning, Catalogue No.: 3882). In some wells were added only the assay medium at 40 μL/well (Cell-free). On the day of the assay, 10 mM of the present compound (DMSO solution) was distributed in a 96-well plate (Costar, Catalogue No.: 3363) and serially diluted with DMSO with the geometrical ratio of 3. The serial dilutions were diluted with the assay medium to 100-fold to prepare a solution of the present compound with a 10-fold concentration (DMSO concentration: 1%). To the plate where cells were plated was added the present compound at 5 µL/well and the plate was incubated in a CO2 incubator with 5% CO2, 95% Air at 37° C. for 30 minutes. For a control and a blank, the assay medium containing 1% DMSO was added at 5 µL/well in place of the solution of the present compound. Subsequently the assay medium containing NGF (Mouse 2.5s, Natural, Invitrogen) was added to the plate at 5 µL/well (final concentration of NGF: 50 ng/ml) and the plate was incubated in a CO2 incubator with 5% CO2, 95% Air at 37° C. for 5 hours. For the blank group, the assay medium was added in place of NGF at 5 µL/well. A reporter assay detection reagent ([…]) was added to the plate which was then incubated in the dark at room temperature for 120 minutes. The reporter assay detection reagent was prepared from LiveBLAzer™-FRET B/G Loading Kit (Invitrogen). On the Analyst GT (Molecular Devices Japan, K.K.) the wells were irradiated with excitation light at 405 nm and the fluorescence intensities at 460 nm and 530 nm were measured. The time resolved fluorescence resonance energy transfer (TR-FRET) ratio of each well was calculated according to the following Equation 1: TR-FRET ratio=(A460x−A460F)/(A530x−A530F) [Eq. 1]
A460x: the fluorescence intensity at 460 nm of the present compound, control or blank;
A460F: the fluorescence intensity at 460 nm of the Cell-free;
A530x: the fluorescence intensity at 530 nm of the present compound, control or blank; and
A530x: the fluorescence intensity at 530 nm of the Cell-free.
The TR-FRET inhibition rate (%) of the present compound was calculated according to the following Equation 2: Inhibition rate (%)={1−(AX−AB)/(AC−AB)}×100 [Eq. 2]
wherein AX: the TR-FRET ratio when the present compound is added;
AB: the TR-FRET of the blank; and
AC: the TR-FRET of the control.
The IC50 value by the present compound was calculated from the inhibition curve based on the inhibition rate of the present compound at respective concentrations.

Experiment [1] deals with NGF-induced vascular hyper permeability. Description: Inhibition of rat NGF-induced vascular hyper permeability. It is filed as in vivo. As to conditions: po, 1 mg/kg orally, read-out: Inhibition rate of vascular hyper permeability (%) (time after administration (h)). On the procedure: TrkA-inhibiting activity of the present compound was evaluted in vivo. The present compound dissolved in a medium was orally administered (adminstered volume: 5 mL/kg) to male CD(SD)IGS rats (7- to 9-week old, Charles River laboratories Japan, Inc.) shaved on the back. A medium was orally administered (adminstered volume: 5 mL/kg) to the control and normal groups. After 6, 12 or 14 hours of administration, 3 μg/mL of a NGF (Mouse 2.5s, Natural, Invitrogen) solution prepared in 0.1% BSA (Sigma-Aldrich)-containing saline was intracutaneously administered (dose; 50 μL/site) at 3 sites on the back of animals under halothane anesthesia. For the normal group, 0.1% BSA-containing saline was intracutaneously administered (dose; […]) at 3 sites on the back. Immediately after intracutaneous administration, 1% Evans Blue (Tokyo Chemical Industriy Co., Ltd.) was administered intravenously from tail (adminstered volume: 3 mL/kg). After 10 minutes of administration, the animals were sacrificed by bleeding due to incision of the abdominal aorta. The sites of intracutaneous administration on the back (3 sites) were excised and the skin samples were respectively transferred to the wells in a 48-well plate (Asahi Glass Co., Ltd.). Formamide (0.8 mL/well) was added to the plate and the plate was sealed and incubated overnight at 60° C. The formamide extraction solution (200 μL) was transferred to a 96-well plate and the absorbance (wavelength: 620 nm) of Evans Blue extracted in formamide was measured on an absorbance microplate reader (SpectraMAX 190, Molecular Devices Japan, K.K.). Standard samples of Evans Blue dissolved in formamide (0, 0.78, 1.56, 3.13, 6.25, 12.5, 25 and 50 µg/mL) were measured at the same time for the absorance (wavelength: 620 nm) to generate a calibration curve. Based on the calibration curve and the absorbances of samples, the concentrations of Evans Blue in the sample was calculated. The concentrations of Evans Blue for three skin samples collected from one aminal were averaged to obtain the vale for the animal. The rate of inhibition for rat NGF-induced vascular hyper permeability of the present compound was calculated according to the following Equation: Inhibition rate (%)={1−(AX−AN)/(AC−AN)}×100 [Eq. 3]
wherein AX: the concentration of Evans Blue of the test compound (an average value of 3 samples from one animal);
AN: the concentration of Evans Blue of the normal group (an average value of 3 samples from one animal);
AC: the concentration of Evans Blue of the control group (an average value of 3 samples from one animal).

The test system of experiment [2] is sodium monoiodoacetate-induced model rats. As to the kind of experiment: Analgesic effect on sodium monoiodoacetate-induced model rats. It counts as in vivo, rat.

Read-outs that look alike come from different tables or passages of the source.

Sequence of human TrkA (P04629 33-796): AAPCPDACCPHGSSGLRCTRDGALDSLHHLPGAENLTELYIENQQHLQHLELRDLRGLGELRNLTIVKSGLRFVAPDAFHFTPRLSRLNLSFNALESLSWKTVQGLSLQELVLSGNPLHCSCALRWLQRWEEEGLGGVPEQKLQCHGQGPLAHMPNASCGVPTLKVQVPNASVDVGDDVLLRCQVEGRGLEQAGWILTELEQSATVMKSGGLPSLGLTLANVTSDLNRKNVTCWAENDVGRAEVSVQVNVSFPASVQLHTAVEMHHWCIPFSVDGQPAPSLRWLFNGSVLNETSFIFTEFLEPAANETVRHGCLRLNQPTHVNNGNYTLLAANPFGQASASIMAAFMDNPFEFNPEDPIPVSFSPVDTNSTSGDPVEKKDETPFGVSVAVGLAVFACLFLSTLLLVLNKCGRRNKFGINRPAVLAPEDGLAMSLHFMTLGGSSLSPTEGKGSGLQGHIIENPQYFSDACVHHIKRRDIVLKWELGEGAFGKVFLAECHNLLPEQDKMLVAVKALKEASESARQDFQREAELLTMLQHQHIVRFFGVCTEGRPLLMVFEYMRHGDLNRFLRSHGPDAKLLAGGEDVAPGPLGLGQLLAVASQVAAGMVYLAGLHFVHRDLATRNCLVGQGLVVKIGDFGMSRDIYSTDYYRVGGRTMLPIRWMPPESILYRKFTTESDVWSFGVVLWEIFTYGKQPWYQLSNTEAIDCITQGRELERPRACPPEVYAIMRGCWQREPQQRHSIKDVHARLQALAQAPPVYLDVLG

On to `O=C(Nc1cnc(Oc2ccc(-c3cnn4cccnc34)cc2)nc1)Nc1cc(C(F)(F)F)ccc1-c1cccnc1` [Example 21-13, 1-(2-(4-(pyrazolo[1,5-a]pyrimidin-3-yl)phenoxy)pyrimidin-5-yl)-3-(2-(pyridin-3-yl)-5-(trifluoromethyl)phenyl)urea], for which half-maximal inhibition against human TrkA (IC50) required 0.001 µM. Besides, the inhibition in vivo at 1 mg/kg in experiment [1] (12 h after administration) stood at 100%.

Consider `CN(C)c1ccn2ncc(-c3ccc(Oc4ncc(NC(=O)Nc5cc(C(F)(F)F)ccc5-c5cccnc5)cn4)cc3)c2n1` [Example 21-37, 1-(2-{4-[5-(dimethylamino)pyrazolo[1,5-a]pyrimidin-3-yl]phenoxy}-5-pyrimidinyl)-3-[2-(3-pyridinyl)-5-(trifluoromethyl)phenyl]urea], for which the IC50 (in general, the concentration needed to halve the response being measured) on human TrkA turned out to be 0.001 µM. Besides, the inhibition in vivo at 1 mg/kg in experiment [1] (14 h after administration) worked out at 98%.

`CN(C)c1ccn2ncc(-c3ccc(Oc4ncc(NC(=O)Nc5cc(C(F)(F)F)ccc5-c5ccnn5C)cn4)cc3)c2n1` [Example 21-51, 1-(2-{4-[5-(dimethylamino)pyrazolo[1,5-a]pyrimidin-3-yl]phenoxy}-5-pyrimidinyl)-3-[2-(1-methyl-1H-pyrazol-5-yl)-5-(trifluoromethyl)phenyl]urea] had an IC50 on human TrkA of 0.001 µM. The inhibition in vivo at 1 mg/kg in experiment [1] (14 h after administration) amounted to 95%.

`Cc1ccn2ncc(-c3ccc(Oc4ncc(NC(=O)Nc5cc(C(F)(F)F)ccc5-c5cccnc5)cn4)cc3)c2n1` [Example 21-65, 1-{2-[4-(5-methylpyrazolo[1,5-a]pyrimidin-3-yl)phenoxy]-5-pyrimidinyl}-3-[2-(3-pyridinyl)-5-(trifluoromethyl)phenyl]urea]: the IC50 on human TrkA was 0.0007 µM. Besides, the inhibition in vivo at 1 mg/kg in experiment [1] (14 h after administration) was 92%.

As for `CCNc1ccn2ncc(-c3ccc(Oc4ncc(NC(=O)Nc5cc(C(F)(F)F)ccc5-c5cccc(C)c5)cn4)cc3)c2n1` [Example 21-67, 1-(2-{4-[5-(ethylamino)pyrazolo[1,5-a]pyrimidin-3-yl]phenoxy}-5-pyrimidinyl)-3-[3′-methyl-4-(trifluoromethyl)-2-biphenylyl]urea], the IC50 against human TrkA was determined as 0.004 µM. Further, in experiment [1] (14 h after administration), the inhibition in vivo at 1 mg/kg stood at 90%.

`CN(C)c1ccn2ncc(-c3ccc(Oc4ncc(NC(=O)Nc5cc(C(F)(F)F)ccc5-c5ccccc5)cn4)cc3)c2n1` [Example 21-70, 1-(2-{4-[5-(dimethylamino)pyrazolo[1,5-a]pyrimidin-3-yl]phenoxy}-5-pyrimidinyl)-3-[4-(trifluoromethyl)-2-biphenylyl]urea] had an IC50 at human TrkA of 0.002 µM. Moreover, the inhibition in vivo at 1 mg/kg in experiment [1] (14 h after administration) worked out at 100%.

At human TrkA, `Cc1cccc(-c2ccc(C(F)(F)F)cc2NC(=O)Nc2cnc(Oc3ccc(-c4cnn5ccc(N(C)C)nc45)cc3)nc2)c1` [Example 21-73, 1-(2-{4-[5-(dimethylamino)pyrazolo[1,5-a]pyrimidin-3-yl]phenoxy}-5-pyrimidinyl)-3-[3′-methyl-4-(trifluoromethyl)-2-biphenylyl]urea] had an IC50 of 0.003 µM. For the same molecule, the inhibition in vivo at 1 mg/kg in experiment [1] (14 h after administration) amounted to 92%.

In turn, `Cc1ccccc1-c1ccc(C(F)(F)F)cc1NC(=O)Nc1cnc(Oc2ccc(-c3cnn4ccc(N(C)C)nc34)cc2)nc1` [Example 21-75, 1-(2-{4-[5-(dimethylamino)pyrazolo[1,5-a]pyrimidin-3-yl]phenoxy}-5-pyrimidinyl)-3-[2′-methyl-4-(trifluoromethyl)-2-biphenylyl]urea] yielded an IC50 on human TrkA of 0.004 µM. The inhibition in vivo at 1 mg/kg in experiment [1] (14 h after administration) is 100%.

Consider `COc1ccc2ncc(-c3ccc(Oc4ncc(NC(=O)Nc5cc(C(F)(F)F)ccc5-c5cccnc5)cn4)cc3)n2n1` [Example 22-8, 1-(2-(4-(6-methoxyimidazo[1,2-b]pyridazin-3-yl)phenoxy)pyrimidin-5-yl)-3-(2-(pyridin-3-yl)-5-(trifluoromethyl)phenyl)urea], for which 0.001 µM corresponded to half-maximal inhibition on human TrkA (IC50). The inhibition in vivo at 1 mg/kg in experiment [1] (14 h after administration) came to 100%.

On to `COc1ccc2ncc(-c3ccc(Oc4ncc(NC(=O)Nc5cc(C(F)(F)F)ccc5-n5cccn5)cn4)cc3)n2n1` [Example 22-9, 1-(2-(1H-pyrazol-1-yl)-5-(trifluoromethyl)phenyl)-3-(2-(4-(6-methoxyimidazo[1,2-b]pyridazin-3-yl)phenoxy)pyrimidin-5-yl)urea], for which inhibition at human TrkA was half-maximal at 0.001 µM (IC50). In addition, the inhibition in vivo at 1 mg/kg in experiment [1] (14 h after administration) stood at 100%.

For `CCOc1ccc2ncc(-c3ccc(Oc4ncc(NC(=O)Nc5cc(C(F)(F)F)ccc5-c5cccnc5)cn4)cc3)n2n1` [Example 22-34, 1-{2-[4-(6-ethoxyimidazo[1,2-b]pyridazin-3-yl)phenoxy]-5-pyrimidinyl}-3-[2-(3-pyridinyl)-5-(trifluoromethyl)phenyl]urea], at human TrkA, half-maximal inhibition (IC50) was put at 0.001 µM. In experiment [1] (14 h after administration), the inhibition in vivo at 1 mg/kg stood at 91%.

As for `CN1CC[C@]23c4c5ccc(O)c4O[C@H]2[C@@H](O)C=C[C@H]3[C@H]1C5` [Morphine], the inhibition in vivo at 3 mg/kg in experiment [2] (Rattus norvegicus, sc, 1 h, read-out: Percent improvement (%)) is 54%.

For `COc1cccc(C2(O)CCCCC2CN(C)C)c1` (stereo not drawn) [Tramadol], the “Percent improvement (%)” value in experiment [2] (MIA-induced model rats, day 24, tramadol 10 mg/kg subcutaneously 1 hour before measurement) was determined as 43%.
